Patent US6972286B2, “Oxazolidinones having a benzannulated 6- or 7-membered heterocycle” (Pharmacia and Upjohn Company, priority 2000, dated 2005)
≈ marks a conversion by molar mass, not a printed value.

System: Streptococcus pneumoniae
Test: Minimum inhibitory concentration (MIC) by agar dilution
Type: cell-based
Settings: in vitro, agar dilution (NCCLS 1993), Streptococcus pneumoniae strain SPNE 9912; read-out: Antibacterial Activity Minimum Inhibitory Concentration SPNE 9912
Description: The oxazolidinone antibacterial agents of this invention have useful activity against a variety of organisms. The in vitro activity of compounds of this invention can be assessed by standard testing procedures such as the determination of minimum inhibitory concentration (MIC) by agar dilution as described in “Approved Standard. Methods for Dilution Antimicrobial Susceptibility Tests for Bacteria That Grow Aerobically”, 3rd. ed., published 1993 by the National Committee for Clinical Laboratory Standards, Villanova, Pa. USA.

MIC	Structure (SMILES)
2 µg/mL (≈ 5.79 µM)	CC(=O)NC[C@H]1CN(c2ccc3c(c2)CCCN(C(C)=O)C3)C(=O)O1 [Example 38, N-{[(5S)-3-(2-Acetyl-1,3,4,5-tetrahydro-1H-2-benzazepin-7-yl)-2-oxo-1,3-oxazolidin-5-yl]methyl}acetamide]
1 µg/mL (≈ 2.37 µM)	CC(=O)NC[C@H]1CN(c2ccc3c(c2)CCCN(C(=O)Nc2ccccc2)C3)C(=O)O1 [Example 40, 7-{(5S)-5-[(Acetylamino)methyl]-2-oxo-1,3-oxazolidin-3-yl}-N-phenyl-1,3,4,5-tetrahydro-2H-2-benzazepine-2-carboxamide]
0.125 µg/mL (≈ 0.331 µM)	CC(=S)NC[C@H]1CN(c2ccc3c(c2)CCN(C(=O)CO)CC3)C(=O)O1 [Example 41, N-{[(5S)-3-(3-Glycoloyl-1,2,4,5-tetrahydro-1H-3-benzazepin-7-yl)-2-oxo-1,3-oxazolidin-5-yl]methyl}ethanethioamide]
0.5 µg/mL (≈ 1.24 µM)	CC(=O)NC[C@H]1CN(c2ccc3c(c2)CCN(c2nnc(N)s2)CC3)C(=O)O1 [Example 42, N-({(5S)-3-[3-(5-Amino-1,3,4-thiadiazol-2-yl)-1,2,4,5-tetrahydro-1H-3-benzazepin-7-yl]-2-oxo-1,3-oxazolidin-5-yl}methyl)acetamide]
0.5 µg/mL (≈ 1.15 µM)	CSc1nnc(N2CCc3ccc(N4C[C@H](CNC(C)=O)OC4=O)cc3CC2)s1 [Example 43, N-({(5S)-3-[3-(5-Methylthio-1,3,4-thiadiazol-2-yl)-1,2,4,5-tetrahydro-1H-3-benzazepin-7-yl]-2-oxo-1,3-oxazolidin-5-yl}methyl)acetamide]
1 µg/mL (≈ 2.49 µM)	CC(=O)NC[C@H]1CN(c2ccc3c(c2)CCN(c2nnc(C)s2)CC3)C(=O)O1 [Example 44, N-({(5S)-3-[3-(5-Methyl-1,3,4-thiadiazol-2-yl)-1,2,4,5-tetrahydro-1H-3-benzazepin-7-yl]-2-oxo-1,3-oxazolidin-5-yl}methyl)acetamide]
0.5 µg/mL (≈ 1.16 µM)	CC(=O)NC[C@H]1CN(c2ccc3c(c2)CCN(c2nnc(NC=O)s2)CC3)C(=O)O1 [Example 45, N-[((5S)-3-{3-[5-(Formylamino)-1,3,4-thiadiazol-2-yl]-1,2,4,5-tetrahydro-1H-3-benzazepin-7-yl}-2-oxo-1,3-oxazolidin-5-yl)methyl]acetamide]
0.5 µg/mL (≈ 1.09 µM)	CC(=O)NC[C@H]1CN(c2ccc3c(c2)CCN(c2nnc(NC(=O)CO)s2)CC3)C(=O)O1 [Example 46, N-[5-(7-{(5S)-5-[(Acetylamino)methyl]-2-oxo-1,3-oxazolidin-3-yl}-1,2,4,5-tetrahydro-3H-3-benzazepin-3-yl)-1,3,4-thiadiazol-2-yl]-2-hydroxyacetamide]
2 µg/mL (≈ 6.24 µM)	CC(=O)NC[C@H]1CN(c2ccc3c(c2)CCSCC3)C(=O)O1 [Example 47, N-[[(5S)-2-Oxo-3-(1,2,4,5-tetrahydro-3-benzothiepin-7-yl)-5-oxazolidinyl]methyl]acetamide]
8 µg/mL (≈ 22.7 µM)	CC(=O)NC[C@H]1CN(c2ccc3c(c2)CCS(=O)(=O)CC3)C(=O)O1 [Example 48, N-[[(5S)-2-Oxo-3-(1,2,4,5-tetrahydro-3,3-dioxido-3-benzothiepin-7-yl)-5-oxazolidinyl]methyl]acetamide]
0.5 µg/mL (≈ 1.49 µM)	CC(=S)NC[C@H]1CN(c2ccc3c(c2)CCSCC3)C(=O)O1 [Example 49, N-[[(5S)-2-Oxo-3-(1,2,4,5-tetrahydro-3-benzothiepin-7-yl)-5-oxazolidinyl]methyl]ethanethioamide]
1 µg/mL (≈ 2.71 µM)	CC(=S)NC[C@H]1CN(c2ccc3c(c2)CCS(=O)(=O)CC3)C(=O)O1 [Example 50, N-[[(5S)-2-Oxo-3-(1,2,4,5-tetrahydro-3,3-dioxido-3-benzothiepin-7-yl)-5-oxazolidinyl]methyl]ethanethioamide]

The next lines start with the molecule.

Structure (SMILES)	MIC
CC(=O)NC[C@H]1CN(c2ccc3c(c2)CCSC3)C(=O)O1 [Example 10, (−)-N-[[(5S)-3-(3,4-Dihydro-1H-2-benzothiopyran-6-yl)-2-oxo-5-oxazolidinyl]methyl]acetamide]	1 µg/mL (≈ 3.26 µM)
CC(=S)NC[C@H]1CN(c2ccc3c(c2)CCSC3)C(=O)O1 [Example 11, (+)-N-[[(5S)-3-(3,4-Dihydro-1H-2-benzothiopyran-6-yl)-2-oxo-5-oxazolidinyl]methyl]ethanethioamide]	0.25 µg/mL (≈ 0.775 µM)
CC(=S)NC[C@H]1CN(c2ccc3c(c2)CCS(=O)(=O)C3)C(=O)O1 [Example 12, (+)-N-[[(5S)-3-(3,4-Dihydro-2,2-dioxido-1H-2-benzothiopyran-6-yl)-2-oxo-5-oxazolidinyl]methyl]ethanethioamide]	1 µg/mL (≈ 2.82 µM)
CC(=S)NC[C@H]1CN(c2ccc3c(c2)COCC3)C(=O)O1 [Example 13, (+)-N-[[(5S)-3-(3,4-Dihydro-1H-2-benzopyran-7-yl)-2-oxo-5-oxazolidinyl]methyl]ethanethioamide]	1 µg/mL (≈ 3.26 µM)
CC(=O)NC[C@H]1CN(c2ccc3c(c2)CCN(C(=O)Cc2cccc(C(F)(F)F)c2)CC3)C(=O)O1 [Example 32]	2 µg/mL (≈ 4.09 µM)
CC(=O)NC[C@H]1CN(c2ccc3c(c2)CCN(C(=O)Cc2ccc(C(F)(F)F)cc2)CC3)C(=O)O1 [Example 33]	2 µg/mL (≈ 4.09 µM)
CC(=O)CCC(=O)N1CCc2ccc(N3C[C@H](CNC(C)=O)OC3=O)cc2CC1 [Example 34]	2 µg/mL (≈ 4.98 µM)
CC(=O)CCCC(=O)N1CCc2ccc(N3C[C@H](CNC(C)=O)OC3=O)cc2CC1 [Example 35, N-({(5S)-2-Oxo-3-[3-(5-oxohexanoyl)-1,2,4,5-tetrahydro-1H-3-benzazepin-7-yl]-1,3-oxazolidin-5-yl}methyl)acetamide]	1 µg/mL (≈ 2.41 µM)
CC(=O)NC[C@H]1CN(c2ccc3c(c2)CCCN(C=O)C3)C(=O)O1 [Example 36, N-{[(5S)-3-(2-Formyl-1,3,4,5-tetrahydro-1H-2-benzazepin-7-yl)-2-oxo-1,3-oxazolidin-5-yl]methyl}acetamide]	< 0.5 µg/mL
CC(=O)NC[C@H]1CN(c2ccc3c(c2)CCCN(C(=O)CO)C3)C(=O)O1 [Example 37, N-{[(5S)-3-(2-Glycoloyl-1,3,4,5-tetrahydro-1H-3-benzazepin-7-yl)-2-oxo-1,3-oxazolidin-5-yl]methyl}acetamide]	1 µg/mL (≈ 2.77 µM)

System: not given
Test: not given
Settings: not given

melting point	Structure (SMILES)
112 to 114 °C (dec.)	CC(=O)NC[C@H]1CN(c2ccc3c(c2)CCSC3)C(=O)O1 [Example 10, (−)-N-[[(5S)-3-(3,4-Dihydro-1H-2-benzothiopyran-6-yl)-2-oxo-5-oxazolidinyl]methyl]acetamide]
112 to 114 °C (dec.)	CC(=S)NC[C@H]1CN(c2ccc3c(c2)CCSC3)C(=O)O1 [Example 11, (+)-N-[[(5S)-3-(3,4-Dihydro-1H-2-benzothiopyran-6-yl)-2-oxo-5-oxazolidinyl]methyl]ethanethioamide]
187 °C (dec.)	CC(=S)NC[C@H]1CN(c2ccc3c(c2)CCS(=O)(=O)C3)C(=O)O1 [Example 12, (+)-N-[[(5S)-3-(3,4-Dihydro-2,2-dioxido-1H-2-benzothiopyran-6-yl)-2-oxo-5-oxazolidinyl]methyl]ethanethioamide]
165 °C (dec.)	CC(=S)NC[C@H]1CN(c2ccc3c(c2)COCC3)C(=O)O1 [Example 13, (+)-N-[[(5S)-3-(3,4-Dihydro-1H-2-benzopyran-7-yl)-2-oxo-5-oxazolidinyl]methyl]ethanethioamide]
